From US6518243B1, “Desleucyl glycopeptide antibiotics and methods of making same” (Trustees of Princeton University, priority 1999, dated 2003)

Legend:
S aureus ATCC 29213 = assay: MIC determination in BHI media, OD600; assay type: cell-based; settings: BHI + 0.1% casamino acids, 18 hours at 37° C., ≧90% OD600 inhibition
In short: (§1)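 Compounds are dissolved and serially diluted in DMSO, then combined with logarithmically growing cells adjusted to roughly 5×10^5 CFU/ml. Plates incubate 18 hours at 37° C before turbidity is measured on a microplate reader.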

E. faecium ATCC 49624 = assay: MIC determination in BHI media, OD600; assay type: cell-based; settings: BHI + 0.1% casamino acids, 18 hours at 37° C., ≧90% OD600 inhibition
In short: as §1

E. Faecalis CL 4877 = assay: MIC determination in BHI media, OD600; assay type: cell-based; settings: BHI + 0.1% casamino acids, 18 hours at 37° C., ≧90% OD600 inhibition
In short: as §1

S. Aureus ATCC 33591 = assay: MIC determination in BHI media, OD600; assay type: cell-based; settings: BHI + 0.1% casamino acids, 18 hours at 37° C., ≧90% OD600 inhibition
In short: as §1

E. faecium CL 4931 = assay: MIC determination in BHI media, OD600; assay type: cell-based; settings: BHI + 0.1% casamino acids, 18 hours at 37° C., ≧90% OD600 inhibition
In short: as §1

E. faceium (ATCC 49624) = assay: Zone of inhibition screen, 96 well agar array format;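 further: score 3 means fourfold and score 4 sixteenfold the reference zone size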; assay type: cell-based, E. faecium; settings: zone of inhibition relative to 1 mg/ml stock solution of p-chlorobiphenylvancomycin
In short: (§2)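 Compounds are screened one by one for antibacterial effect in an agar array of 96 wells, using the same set of strains throughout.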

S. aureus (ATCC 29213) = assay: as above; assay type: cell-based; design: scale not given here; settings: zone of inhibition relative to 1 mg/ml stock solution of p-chlorobiphenylvancomycin
In short: as §2

E. faecalis (CL 4877) = assay: as above; assay type: cell-based; design: scale not given here; settings: zone of inhibition relative to 1 mg/ml stock solution of p-chlorobiphenylvancomycin
In short: as §2

[1] = system: S. epidermidis (ATCC 12228); assay: as above; assay type: cell-based; design: scale not given here; settings: zone of inhibition relative to 1 mg/ml stock solution of p-chlorobiphenylvancomycin
In short: as §2

E. faecalis ATCC 29212 = assay: MIC determination in BHI media, OD600; assay type: cell-based; settings: BHI + 0.1% casamino acids, 18 hours at 37° C., ≧90% OD600 inhibition
In short: as §1

Row | MIC S. aureus ATCC 29213 (S aureus ATCC 29213) [mg/L] | MIC E. faecium ATCC 49624 (E. faecium ATCC 49624) [mg/L] | MIC E. faecalis CL 4877 (E. Faecalis CL 4877) [mg/L] | MIC S. aureus ATCC 33591 (S. Aureus ATCC 33591) [mg/L] | MIC E. faecium CL 4931 (E. faecium CL 4931) [mg/L] | MIC E. faecalis ATCC 29212 (E. faecalis ATCC 29212) [mg/L] | SMILES | zone score, E. faecium ATCC 49624 (E. faceium (ATCC 49624)) | zone score, S. aureus ATCC 29213 (S. aureus (ATCC 29213)) | zone score, E. faecalis CL 4877 (E. faecalis (CL 4877)) | zone score, S. epidermidis ATCC 12228 [1]
1 | 0.39 | 0.25 | 25 | 0.39 | 25 |  | COCC(N)C(=O)NC1C(=O)NC(CC(N)=O)C(=O)NC2C(=O)NC3C(=O)NC(C(=O)NC(C(=O)O)c4cc(O)cc(O)c4-c4cc3ccc4O)C(O)c3ccc(c(Cl)c3)Oc3cc2cc(c3OC2OC(CO)C(O)C(O)C2OC2CC(C)(NCc3ccc(-c4ccc(Cl)cc4)cc3)C(O)C(C)O2)Oc2ccc(cc2Cl)C1O (centres unmarked) [Compound 525] |  |  |  | 
2 | 0.78 | 0.78 | 25 | 0.78 | 25 |  | C[C@H](N)C(=O)N[C@H]1C(=O)N[C@@H](CC(N)=O)C(=O)N[C@H]2C(=O)N[C@H]3C(=O)N[C@H](C(=O)N[C@@H](C(=O)O)c4cc(O)cc(O)c4-c4cc3ccc4O)[C@H](O)c3ccc(c(Cl)c3)Oc3cc2cc(c3O[C@@H]2O[C@H](CO)[C@@H](O)[C@H](O)[C@H]2O[C@@H]2C[C@@](C)(NCc3ccc(-c4ccc(Cl)cc4)cc3)[C@@H](O)[C@@H](C)O2)Oc2ccc(cc2Cl)[C@H]1O [Compound 1] | 2 |  |  | 
3 | 0.78 | 0.25 | 25 | 0.78 | 25 |  | C[C@H](OC(C)(C)C)[C@@H](N)C(=O)N[C@H]1C(=O)N[C@@H](CC(N)=O)C(=O)N[C@H]2C(=O)N[C@H]3C(=O)N[C@H](C(=O)N[C@@H](C(=O)O)c4cc(O)cc(O)c4-c4cc3ccc4O)[C@H](O)c3ccc(c(Cl)c3)Oc3cc2cc(c3O[C@@H]2O[C@H](CO)[C@@H](O)[C@H](O)[C@H]2O[C@@H]2C[C@@](C)(NCc3ccc(-c4ccc(Cl)cc4)cc3)[C@@H](O)[C@@H](C)O2)Oc2ccc(cc2Cl)[C@H]1O [Compound 18] | 2 | 2 |  | 
4 |  | 0.78 | 25 |  | 25 |  | CC1OC(OC2C(Oc3c4cc5cc3Oc3ccc(cc3Cl)C(O)C3NC(=O)C(NC(=O)C5NC(=O)C(CC(N)=O)NC(=O)C(NC(=O)C(N)CCCCNC=O)C(O)c5ccc(c(Cl)c5)O4)c4ccc(O)c(c4)-c4c(O)cc(O)cc4C(C(=O)O)NC3=O)OC(CO)C(O)C2O)CC(C)(NCc2ccc(-c3ccc(Cl)cc3)cc2)C1O (centres unmarked) [Compound 79] | 2 | 2 |  | 
5 |  |  | 25 |  | 25 |  | CC1OC(OC2C(Oc3c4cc5cc3Oc3ccc(cc3Cl)C(O)C3NC(=O)C(NC(=O)C5NC(=O)C(CC(N)=O)NC(=O)C(NC(=O)C(N)CSC(C)(C)C)C(O)c5ccc(c(Cl)c5)O4)c4ccc(O)c(c4)-c4c(O)cc(O)cc4C(C(=O)O)NC3=O)OC(CO)C(O)C2O)CC(C)(NCc2ccc(-c3ccc(Cl)cc3)cc2)C1O (centres unmarked) [Compound 333] |  |  |  | 
6 |  |  | 25 |  | 25 |  | C[C@H](O)C(=O)N[C@H]1C(=O)N[C@@H](CC(N)=O)C(=O)N[C@H]2C(=O)N[C@H]3C(=O)N[C@H](C(=O)N[C@@H](C(=O)O)c4cc(O)cc(O)c4-c4cc3ccc4O)[C@H](O)c3ccc(c(Cl)c3)Oc3cc2cc(c3O[C@@H]2O[C@H](CO)[C@@H](O)[C@H](O)[C@H]2O[C@@H]2C[C@@](C)(NCc3ccc(-c4ccc(Cl)cc4)cc3)[C@@H](O)[C@@H](C)O2)Oc2ccc(cc2Cl)[C@H]1O [Compound 21] |  | 2 | 2 | 2
7 | 0.78 |  | > 25 | 0.78 | > 25 |  | CC1OC(OC2C(Oc3c4cc5cc3Oc3ccc(cc3Cl)C(O)C3NC(=O)C(NC(=O)C5NC(=O)C(CC(N)=O)NC(=O)C(NC(=O)CNC(=O)CNC(=O)c5ccc([N+](=O)[O-])cc5)C(O)c5ccc(c(Cl)c5)O4)c4ccc(O)c(c4)-c4c(O)cc(O)cc4C(C(=O)O)NC3=O)OC(CO)C(O)C2O)CC(C)(NCc2ccc(-c3ccc(Cl)cc3)cc2)C1O (centres unmarked) [Compound 108] |  | 2 |  | 
8 | 0.78 | 0.78 | 25 |  | 25 |  | CC1OC(OC2C(Oc3c4cc5cc3Oc3ccc(cc3Cl)C(O)C3NC(=O)C(NC(=O)C5NC(=O)C(CC(N)=O)NC(=O)C(NC(=O)C(N)CC[S+](C)[O-])C(O)c5ccc(c(Cl)c5)O4)c4ccc(O)c(c4)-c4c(O)cc(O)cc4C(C(=O)O)NC3=O)OC(CO)C(O)C2O)CC(C)(NCc2ccc(-c3ccc(Cl)cc3)cc2)C1O (centres unmarked) [Compound 81] | 2 |  |  | 2
9 | > 25 | > 25 | > 25 | > 25 | > 25 | > 25 | CC1OC(OC2C(Oc3c4cc5cc3Oc3ccc(cc3Cl)C(O)C3NC(=O)C(NC(=O)C5NC(=O)C(CC(N)=O)NC(=O)C(N)C(O)c5ccc(c(Cl)c5)O4)c4ccc(O)c(c4)-c4c(O)cc(O)cc4C(C(=O)O)NC3=O)OC(CO)C(O)C2O)CC(C)(NCc2ccc(-c3ccc(Cl)cc3)cc2)C1O (centres unmarked) [Compound 522, Des-Lecyl Vancomycin, reference compound] |  |  |  | 
10 |  | 0.78 | > 25 |  | > 25 |  | CN[C@H](CC(C)C)C(=O)N[C@H]1C(=O)N[C@@H](CC(N)=O)C(=O)N[C@H]2C(=O)N[C@H]3C(=O)N[C@H](C(=O)N[C@@H](C(=O)O)c4cc(O)cc(O)c4-c4cc3ccc4O)[C@H](O)c3ccc(c(Cl)c3)Oc3cc2cc(c3O[C@@H]2O[C@H](CI)[C@@H](O)[C@H](O)[C@H]2O[C@@H]2C[C@@](C)(NCc3ccc(-c4ccc(Cl)cc4)cc3)[C@@H](O)[C@@H](C)O2)Oc2ccc(cc2Cl)[C@H]1O [Compound 519] |  |  |  | 
11 | 0.062 | 0.062 | 3.91 | 0.12 |  | 0.25 | C[C@H]1O[C@H](O[C@H]2[C@H](Oc3c4cc5cc3Oc3ccc(cc3Cl)[C@@H](O)[C@@H](NC(=O)[C@H](N)COC(C)(C)C)C(=O)N[C@@H](CC(N)=O)C(=O)N[C@H]5C(=O)N[C@H]3C(=O)N[C@H](C(=O)N[C@@H](C(=O)O)c5cc(O)cc(O)c5-c5cc3ccc5O)[C@H](O)c3ccc(c(Cl)c3)O4)O[C@H](CO)[C@@H](O)[C@@H]2O)C[C@@](C)(NCc2ccc(-c3ccc(Cl)cc3)cc2)[C@H]1O [Compound 17] |  |  |  | 
12 | 0.78 | 0.39 | 25 | 0.39 | 25 | 0.78 | C[C@H]1O[C@H](O[C@H]2[C@H](Oc3c4cc5cc3Oc3ccc(cc3Cl)[C@@H](O)[C@@H](NC(=O)[C@H](N)Cc3cccnc3)C(=O)N[C@@H](CC(N)=O)C(=O)N[C@H]5C(=O)N[C@H]3C(=O)N[C@H](C(=O)N[C@@H](C(=O)O)c5cc(O)cc(O)c5-c5cc3ccc5O)[C@H](O)c3ccc(c(Cl)c3)O4)O[C@H](CO)[C@@H](O)[C@@H]2O)C[C@@](C)(NCc2ccc(-c3ccc(Cl)cc3)cc2)[C@H]1O [Compound 556] |  |  |  | 
13 |  | 0.39 | 25 |  | 25 |  | CC1OC(OC2C(Oc3c4cc5cc3Oc3ccc(cc3Cl)C(O)C3NC(=O)C(NC(=O)C5NC(=O)C(CC(N)=O)NC(=O)C(NC(=O)C(N)Cc5ccc(O)c([N+](=O)[O-])c5)C(O)c5ccc(c(Cl)c5)O4)c4ccc(O)c(c4)-c4c(O)cc(O)cc4C(C(=O)O)NC3=O)OC(CO)C(O)C2O)CC(C)(NCc2ccc(-c3ccc(Cl)cc3)cc2)C1O (centres unmarked) [Compound 557] |  |  |  | 
14 |  | 0.78 | 25 |  | 25 |  | C[C@H]1O[C@H](O[C@H]2[C@H](Oc3c4cc5cc3Oc3ccc(cc3Cl)[C@@H](O)[C@@H](NC(=O)[C@@H]3CC(OC(C)(C)C)CN3)C(=O)N[C@@H](CC(N)=O)C(=O)N[C@H]5C(=O)N[C@H]3C(=O)N[C@H](C(=O)N[C@@H](C(=O)O)c5cc(O)cc(O)c5-c5cc3ccc5O)[C@H](O)c3ccc(c(Cl)c3)O4)O[C@H](CO)[C@@H](O)[C@@H]2O)C[C@@](C)(NCc2ccc(-c3ccc(Cl)cc3)cc2)[C@H]1O (some centres unmarked) [Compound 30] | 2 |  |  | 
15 | 0.78 | 0.78 | 25 |  |  |  | CC1OC(OC2C(Oc3c4cc5cc3Oc3ccc(cc3Cl)C(O)C3NC(=O)C(NC(=O)C5NC(=O)C(CC(N)=O)NC(=O)C(NC(=O)C(N)CO)C(O)c5ccc(c(Cl)c5)O4)c4ccc(O)c(c4)-c4c(O)cc(O)cc4C(C(=O)O)NC3=O)OC(CO)C(O)C2O)CC(C)(NCc2ccc(-c3ccc(Cl)cc3)cc2)C1O (centres unmarked) [Compound 88] | 2 | 2 | 2 | 2

Row | SMILES | MIC S. aureus ATCC 29213 (S aureus ATCC 29213) [mg/L] | MIC E. faecium ATCC 49624 (E. faecium ATCC 49624) [mg/L] | MIC E. faecalis CL 4877 (E. Faecalis CL 4877) [mg/L] | MIC S. aureus ATCC 33591 (S. Aureus ATCC 33591) [mg/L] | MIC E. faecium CL 4931 (E. faecium CL 4931) [mg/L] | MIC E. faecalis ATCC 29212 (E. faecalis ATCC 29212) [mg/L] | zone score, E. faecium ATCC 49624 (E. faceium (ATCC 49624)) | zone score, S. aureus ATCC 29213 (S. aureus (ATCC 29213)) | zone score, E. faecalis CL 4877 (E. faecalis (CL 4877)) | zone score, S. epidermidis ATCC 12228 [1]
16 | CN[C@H](CC(C)C)C(=O)N[C@H]1C(=O)N[C@@H](CC(N)=O)C(=O)N[C@H]2C(=O)N[C@H]3C(=O)N[C@H](C(=O)N[C@H](C(=O)O)c4cc(O)cc(O)c4-c4cc3ccc4O)[C@H](O)c3ccc(c(Cl)c3)Oc3cc2cc(c3O[C@@H]2O[C@H](CO)[C@@H](O)[C@H](O)[C@H]2O[C@H]2C[C@](C)(N)[C@H](O)[C@H](C)O2)Oc2ccc(cc2Cl)[C@H]1O [Compound 0, Vancomycin, reference compound] | 1.25 | 1.25 | > 250 | 2.5 | > 250 |  |  |  |  | 
